Experimental data as given in patent US20150224129A1 (priority 2012, published 2015).

Tests used:
S. pneumoniae serotype 1 = system: S. pneumoniae serotype 1; design: species or system mice; settings: mouse, in vivo
iNKT cells = test: Analysis of lung iNKT cell activation (intracellular IFN-γ, flow cytometry); assay type: in vivo, mice; settings: lung iNKT cells of IAV-experienced animals (day 7 post-IAV) compared with naïve animals; i.n. administration
S. pneumoniae = settings: exogenous activation of lung iNKT cells; high dose of bacteria; no previous influenza; cited from earlier work

CCCCCCCCCCCCCCCCCCCCCCCCCC(=O)N[C@@H](CO[C@H]1O[C@H](CO)[C@H](O)[C@H](O)[C@H]1O)[C@H](O)[C@H](O)CCCCCCCCCCCCCC [α-GalCer, α-galactosylceramide]
protection against S. pneumoniae challenge, as assessed by the enhanced survival rate (S. pneumoniae serotype 1): ~70% | iNKT cell activation (IFN-γ production) in response to α-GalCer (iNKT cells): leads to iNKT cell activation | clearance of S. pneumoniae (S. pneumoniae): leads to the clearance of S. pneumoniae
